# Reference: article PMC9151729, “Experimental solubility and thermodynamic modeling of empagliflozin in supercritical carbon dioxide” (Scientific Reports, 2022)
# Like-named read-outs stand apart in the source and are kept apart here. Marks after values point to notes of the source that are not given here.
# Experiments:
# [1] = Total, sublimation and solvation enthalpies from Chrastil, Reformulated Chrastil and Bartle et al. model correlations of the solubility data; type: physicochemical
# Excerpt: It is an empirical model and mathematically stated as:7 lny2P/Pref=A2+B2/T+C2ρ-ρref where A2-C2 are model constants. From parameter B2 , one can estimate sublimation enthalpy using the relation, ΔsubH=-B2R , in which R is universal gas constant.
# It is a semi-empirical model and mathematically stated as:9 c2=ρ1κexpA4+B4/T where κ,A4andB4 are model constants.
# It is a semi-empirical model and mathematically explained as:15 y2=RTρ1/MCFf^·^κ^′-1expA11+B11/T where κ^′,A10andB10 are model constants.
# The density-based models considered in this work have different number of adjustable parameters. These parameters range from three to six numbers. The correlating ability of the models is depicted in Figs. 5, 6, 7, 8, 9, 10, 11. From the results, it is clear that all the models are able to correlate the data reasonably well and maximum AARD% is observed to be 10.4%. It is believed that, more parameter models are able to correlate the data more accurately. Sodefian et al., model is able to correlate the data with AARD = 5.84% and Akaike’s information criterion (AIC = − 637.59) (more relevant information is presented in the following section). Among density models, Bian et al., model (five parameters model) is able to correlate the data well and corresponding AARD% is 5.1%. […] Further, Chrastil and Reformulated Chrastil models are able to provide the total enthalpy. Whereas, Bartle et al., model parameters are able to provide sublimation enthalpy of the empagliflozin drug. From the magnitude difference between the total and sublimation enthalpies, a solvation enthalpy is calculated.
# [2] = Solubility of empagliflozin in supercritical carbon dioxide (isobaric-isothermal method, UV-Vis at 276 nm); type: physicochemical; conditions: for solubility thermodynamic at 60 min: supercritical carbon dioxide (ScCO2), thermodynamic from solid, read-out: S (equilibrium solubility) in ScCO2
# Description: The detailed discussion of the solubility apparatus and equilibrium cell has been presented in our earlier studies (Fig. 2)[19],[25],[40],[41]. However, a brief description about the apparatus is presented in this section. This method may be classified as an isobaric-isothermal method. Each measurement was carried out with high precision and temperatures and pressures were controlled within ± 0.1 K and ± 0.1 MPa, respectively. For all measurement, 1 g of empagliflozin drug was used. As mentioned in our previous works, the equilibrium was observed within 60 min. After equilibrium, 600 µL saturated ScCO2 sample was collected via 2-status 6-way port valve in a DMSO preloaded vial. After discharging 600 µL saturated ScCO2, the port valve was washed with 1 ml DMSO. Thus, the total saturation solution was 5 ml. Each measurement was repeated thrice and their average values were reported. Mole fraction is obtained as follows:1 y2=ndrug/ndrug+nCO2 where nsolute is the moles number of the drug, and nCO2 is the moles number of CO2 in the sampling loop.
# Further, the above quantities are given as:2 nsolute=Cs·Vs/Ms 3 nCO2=V1·ρ/MCO2 where Cs is the drug concentration in saturated sample vial in g/L. The volume of the sampling loop and vial collection are V1(L) = 600 × 10^–6 m^3 and Vs(L) = 5 × 10^–3 m^3, respectively. The Ms and MCO2 are the molecular weight of drug and CO2, respectively. Solubility is also described as4 S=CSVs/V1
# The relation between S and y2 is5 S=ρMs/MCO2y2/1-y2
# A UV–Visible spectrophotometer (Model UNICO-4802) and DMSO solvent were used for the measurement of empagliflozin solubility. The samples were analyzed at 276 nm.
# [3] = 308 K, 12 MPa, ScCO2 density 769 kg/m^3
# [4] = 308 K, 15 MPa, ScCO2 density 817 kg/m^3
# [5] = 308 K, 18 MPa, ScCO2 density 849 kg/m^3
# [6] = 308 K, 21 MPa, ScCO2 density 875 kg/m^3
# [7] = 308 K, 24 MPa, ScCO2 density 896 kg/m^3
# [8] = 308 K, 27 MPa, ScCO2 density 914 kg/m^3
# [9] = 318 K, 12 MPa, ScCO2 density 661 kg/m^3
# [10] = 318 K, 15 MPa, ScCO2 density 744 kg/m^3
# [11] = 318 K, 18 MPa, ScCO2 density 791 kg/m^3
# [12] = 318 K, 21 MPa, ScCO2 density 824 kg/m^3
# [13] = 318 K, 24 MPa, ScCO2 density 851 kg/m^3
# [14] = 318 K, 27 MPa, ScCO2 density 872 kg/m^3
# [15] = 328 K, 12 MPa, ScCO2 density 509 kg/m^3
# [16] = 328 K, 15 MPa, ScCO2 density 656 kg/m^3
# [17] = 328 K, 18 MPa, ScCO2 density 725 kg/m^3
# [18] = 328 K, 21 MPa, ScCO2 density 769 kg/m^3
# [19] = 328 K, 24 MPa, ScCO2 density 802 kg/m^3
# [20] = 328 K, 27 MPa, ScCO2 density 829 kg/m^3
# [21] = 338 K, 12 MPa, ScCO2 density 388 kg/m^3
# [22] = 338 K, 15 MPa, ScCO2 density 557 kg/m^3
# [23] = 338 K, 18 MPa, ScCO2 density 652 kg/m^3
# [24] = 338 K, 21 MPa, ScCO2 density 710 kg/m^3
# [25] = 338 K, 24 MPa, ScCO2 density 751 kg/m^3
# [26] = 338 K, 27 MPa, ScCO2 density 783 kg/m^3
compound,measurement,setting,value
OC[C@H]1O[C@@H](c2ccc(Cl)c(Cc3ccc(O[C@H]4CCOC4)cc3)c2)[C@H](O)[C@@H](O)[C@@H]1O [empagliflozin],"Enthalpy of sublimation, ΔHsub",[1]; obtained with Bartle et al. model,~49.653^c (approximate value) kJ/mol
same,"Total entalpy, ΔHtotal",[1]; obtained with Chrastil model,30.548^a kJ/mol
same,"Total entalpy, ΔHtotal",[1]; obtained with Reformulated Chrastil model,22.496^b kJ/mol
same,y2 solubility in ScCO2 (mole fraction),[2]; [3],0.0814 y2 × 10^4 (mole fraction)
same,y2 solubility in ScCO2 (mole fraction),[2]; [4],0.1266 y2 × 10^4 (mole fraction)
same,y2 solubility in ScCO2 (mole fraction),[2]; [5],0.1327 y2 × 10^4 (mole fraction)
same,y2 solubility in ScCO2 (mole fraction),[2]; [6],0.1411 y2 × 10^4 (mole fraction)
same,y2 solubility in ScCO2 (mole fraction),[2]; [7],0.1501 y2 × 10^4 (mole fraction)
same,y2 solubility in ScCO2 (mole fraction),[2]; [8],0.1806 y2 × 10^4 (mole fraction)
same,y2 solubility in ScCO2 (mole fraction),[2]; [9],0.0706 y2 × 10^4 (mole fraction)
same,y2 solubility in ScCO2 (mole fraction),[2]; [10],0.1182 y2 × 10^4 (mole fraction)
same,y2 solubility in ScCO2 (mole fraction),[2]; [11],0.1515 y2 × 10^4 (mole fraction)
same,y2 solubility in ScCO2 (mole fraction),[2]; [12],0.1601 y2 × 10^4 (mole fraction)
same,y2 solubility in ScCO2 (mole fraction),[2]; [13],0.2040 y2 × 10^4 (mole fraction)
same,y2 solubility in ScCO2 (mole fraction),[2]; [14],0.2079 y2 × 10^4 (mole fraction)
same,y2 solubility in ScCO2 (mole fraction),[2]; [15],0.0611 y2 × 10^4 (mole fraction)
same,y2 solubility in ScCO2 (mole fraction),[2]; [16],0.1044 y2 × 10^4 (mole fraction)
same,y2 solubility in ScCO2 (mole fraction),[2]; [17],0.1620 y2 × 10^4 (mole fraction)
same,y2 solubility in ScCO2 (mole fraction),[2]; [18],0.1860 y2 × 10^4 (mole fraction)
same,y2 solubility in ScCO2 (mole fraction),[2]; [19],0.2248 y2 × 10^4 (mole fraction)
same,y2 solubility in ScCO2 (mole fraction),[2]; [20],0.2260 y2 × 10^4 (mole fraction)
same,y2 solubility in ScCO2 (mole fraction),[2]; [21],0.0514 y2 × 10^4 (mole fraction)
same,y2 solubility in ScCO2 (mole fraction),[2]; [22],0.0928 y2 × 10^4 (mole fraction)
same,y2 solubility in ScCO2 (mole fraction),[2]; [23],0.2002 y2 × 10^4 (mole fraction)
same,y2 solubility in ScCO2 (mole fraction),[2]; [24],0.2266 y2 × 10^4 (mole fraction)
same,y2 solubility in ScCO2 (mole fraction),[2]; [25],0.2637 y2 × 10^4 (mole fraction)
same,y2 solubility in ScCO2 (mole fraction),[2]; [26],0.2590 y2 × 10^4 (mole fraction)
same,cross over region of the solubility isotherms,"[2]; ScCO2, isotherms 308 to 338 K",16.5 MPa
same,solubility thermodynamic at 60 min,[2]; [3],64.3 µg/mL
same,solubility thermodynamic at 60 min,[2]; [4],106 µg/mL
same,solubility thermodynamic at 60 min,[2]; [5],116 µg/mL
same,solubility thermodynamic at 60 min,[2]; [6],126 µg/mL
same,solubility thermodynamic at 60 min,[2]; [7],138 µg/mL
same,solubility thermodynamic at 60 min,[2]; [8],169 µg/mL
same,solubility thermodynamic at 60 min,[2]; [9],47.9 µg/mL
same,solubility thermodynamic at 60 min,[2]; [10],90.1 µg/mL
same,solubility thermodynamic at 60 min,[2]; [11],123 µg/mL
same,solubility thermodynamic at 60 min,[2]; [12],135 µg/mL
same,solubility thermodynamic at 60 min,[2]; [13],181 µg/mL
same,solubility thermodynamic at 60 min,[2]; [14],186 µg/mL
same,solubility thermodynamic at 60 min,[2]; [15],31.9 µg/mL
same,solubility thermodynamic at 60 min,[2]; [16],70.2 µg/mL
same,solubility thermodynamic at 60 min,[2]; [17],120 µg/mL
same,solubility thermodynamic at 60 min,[2]; [18],147 µg/mL
same,solubility thermodynamic at 60 min,[2]; [19],185 µg/mL
same,solubility thermodynamic at 60 min,[2]; [20],192 µg/mL
same,solubility thermodynamic at 60 min,[2]; [21],20.4 µg/mL
same,solubility thermodynamic at 60 min,[2]; [22],53 µg/mL
same,solubility thermodynamic at 60 min,[2]; [23],134 µg/mL
same,solubility thermodynamic at 60 min,[2]; [24],165 µg/mL
same,solubility thermodynamic at 60 min,[2]; [25],203 µg/mL
same,solubility thermodynamic at 60 min,[2]; [26],208 µg/mL
